Columns and labels:
[1] = The drug is tested on Bacteroides uniformis strain: ATCC8492 for biotransformation. The drug concentrations were measured before and after a 12-h incubation by liquid-chromatography-coupled mass spectrometry (LC–MS); settings: 2 µM
[2] = anaerostipes sp., 12 h, 2 µM
Description: The drug is tested on Anaerostipes sp. strain: fecal isolate for biotransformation. The drug concentrations were measured before and after a 12-h incubation by liquid-chromatography-coupled mass spectrometry (LC–MS)

[3] = bacteroides fragilis, 12 h, 2 µM
Description: The drug is tested on Bacteroides fragilis strain: DS-208 for biotransformation. The drug concentrations were measured before and after a 12-h incubation by liquid-chromatography-coupled mass spectrometry (LC–MS)

[4] = The drug is tested on Clostridium sp. strain: fecal isolate for biotransformation. The drug concentrations were measured before and after a 12-h incubation by liquid-chromatography-coupled mass spectrometry (LC–MS); settings: 2 µM
[5] = The drug is tested on Anaerococcus hydrogenalis strain: DSM7454 for biotransformation. The drug concentrations were measured before and after a 12-h incubation by liquid-chromatography-coupled mass spectrometry (LC–MS); settings: 2 µM
[6] = The drug is tested on Bacteroides finegoldii strain: DSM17565 for biotransformation. The drug concentrations were measured before and after a 12-h incubation by liquid-chromatography-coupled mass spectrometry (LC–MS); settings: 2 µM
[7] = The drug is tested on Anaerotruncus colihominis strain: DSM17241 for biotransformation. The drug concentrations were measured before and after a 12-h incubation by liquid-chromatography-coupled mass spectrometry (LC–MS); settings: 2 µM

Compound	Bacterial Biotransformation [1]	Bacterial Biotransformation [2]	Bacterial Biotransformation [3]	Bacterial Biotransformation [4]	Bacterial Biotransformation [5]	Bacterial Biotransformation [6]	Bacterial Biotransformation [7]
CCOC(=O)[C@H](CCc1ccccc1)N[C@@H](C)C(=O)N1Cc2ccccc2C[C@H]1C(=O)O	Compound metabolized	Compound NOT metabolized	Compound metabolized	Compound metabolized	Compound NOT metabolized		
CCC1(c2ccc(N)cc2)CCC(=O)NC1=O (stereo not given) [AMINOGLUTETHIMIDE]		Compound NOT metabolized	Compound NOT metabolized		Compound NOT metabolized	Compound NOT metabolized	Compound NOT metabolized
O=C1CN2Cc3c(ccc(Cl)c3Cl)N=C2N1 [ANAGRELIDE]		Compound NOT metabolized	Compound NOT metabolized	Compound metabolized	Compound NOT metabolized	Compound NOT metabolized	Compound NOT metabolized
CN1CCC(=C2c3ccccc3CCc3cccnc32)CC1.O=C(O)/C=C\C(=O)O.O=C(O)/C=C\C(=O)O [AZATADINE MALEATE]		Compound NOT metabolized	Compound NOT metabolized	Compound NOT metabolized	Compound NOT metabolized	Compound NOT metabolized	Compound NOT metabolized
NS(=O)(=O)c1cc2c(cc1Cl)N=C(CSCc1ccccc1)NS2(=O)=O [BENZTHIAZIDE]	Compound NOT metabolized	Compound NOT metabolized	Compound NOT metabolized	Compound metabolized	Compound NOT metabolized		Compound NOT metabolized
CC(C)NCC(O)COc1ccc(COCCOC(C)C)cc1.CC(C)NCC(O)COc1ccc(COCCOC(C)C)cc1.O=C(O)/C=C/C(=O)O (stereo not given) [BISOPROLOL FUMARATE]		Compound NOT metabolized	Compound NOT metabolized	Compound NOT metabolized	Compound NOT metabolized	Compound NOT metabolized	Compound NOT metabolized
CCCC1O[C@@H]2C[C@H]3[C@@H]4CCC5=CC(=O)C=C[C@]5(C)[C@H]4[C@@H](O)C[C@]3(C)[C@]2(C(=O)CO)O1 (stereo not given in full) [BUDESONIDE]		Compound NOT metabolized		Compound metabolized	Compound NOT metabolized	Compound NOT metabolized	Compound NOT metabolized
CCCC(C)(COC(N)=O)COC(=O)NC(C)C (stereo not given) [CARISOPRODOL]	Compound metabolized	Compound NOT metabolized	Compound metabolized	Compound metabolized		Compound NOT metabolized	
Br.CN(C)CCCC1(c2ccc(F)cc2)OCc2cc(C#N)ccc21 (stereo not given) [CITALOPRAM HYDROBROMIDE]		Compound NOT metabolized	Compound NOT metabolized	Compound NOT metabolized	Compound NOT metabolized	Compound NOT metabolized	Compound NOT metabolized
CN1CCC[C@@H]1CCO[C@](C)(c1ccccc1)c1ccc(Cl)cc1.O=C(O)/C=C/C(=O)O [CLEMASTINE FUMARATE]	Compound metabolized	Compound NOT metabolized	Compound metabolized	Compound metabolized	Compound NOT metabolized		
Clc1ccc(Cn2c(CN3CCCC3)nc3ccccc32)cc1 [CLEMIZOLE]	Compound NOT metabolized	Compound NOT metabolized	Compound NOT metabolized		Compound NOT metabolized	Compound NOT metabolized	
COc1cc2c(c(OC)c1OC)-c1ccc(OC)c(=O)cc1[C@@H](NC(C)=O)CC2 [COLCHICINE]	Compound metabolized	Compound metabolized	Compound metabolized	Compound metabolized	Compound NOT metabolized		Compound NOT metabolized
CN1C[C@H](C(=O)N[C@]2(C)O[C@@]3(O)[C@@H]4CCCN4C(=O)[C@H](Cc4ccccc4)N3C2=O)C=C2c3cccc4[nH]cc(c34)C[C@H]21.CN1C[C@H](C(=O)N[C@]2(C)O[C@@]3(O)[C@@H]4CCCN4C(=O)[C@H](Cc4ccccc4)N3C2=O)C=C2c3cccc4[nH]cc(c34)C[C@H]21.O=C(O)C(O)C(O)C(=O)O [ERGOTAMINE TARTRATE]	Compound metabolized	Compound metabolized	Compound metabolized		Compound metabolized	Compound metabolized	Compound metabolized
CC[C@H](C)C(=O)O[C@H]1C[C@@H](C)C=C2C=C[C@H](C)[C@H](CC[C@@H]3C[C@@H](O)CC(=O)O3)[C@H]21 [LOVASTATIN]	Compound metabolized	Compound NOT metabolized		Compound metabolized	Compound metabolized		Compound metabolized
COc1ccc2c(c1OC)C(=O)O[C@@H]2[C@H]1c2c(cc3c(c2OC)OCO3)CCN1C [NOSCAPINE]	Compound metabolized	Compound metabolized	Compound metabolized		Compound metabolized	Compound metabolized	Compound metabolized
COc1cc(NC(C)CCCN)c2ncccc2c1.O=P(O)(O)O.O=P(O)(O)O (stereo not given) [PRIMAQUINE PHOSPHATE]	Compound metabolized	Compound NOT metabolized	Compound NOT metabolized		Compound metabolized	Compound metabolized	
CNC(=C[N+](=O)[O-])NCCSCc1ccc(CN(C)C)o1 [RANITIDINE]	Compound NOT metabolized	Compound NOT metabolized	Compound metabolized	Compound metabolized	Compound metabolized		Compound metabolized
COc1ccc2[nH]c([S+]([O-])Cc3ncc(C)c(OC)c3C)nc2n1 (stereo not given) [TENATOPRAZOLE]	Compound metabolized		Compound metabolized	Compound metabolized	Compound metabolized	Compound metabolized	
CN1CCN(CC/C=C2/c3ccccc3Sc3ccc(S(=O)(=O)N(C)C)cc32)CC1 [THIOTHIXENE]	Compound metabolized	Compound metabolized	Compound NOT metabolized	Compound metabolized	Compound metabolized		Compound NOT metabolized
CCOC(=O)[C@H](CCc1ccccc1)N[C@@H](C)C(=O)N1[C@H](C(=O)O)C[C@H]2CCCC[C@@H]21 [TRANDOLAPRIL]	Compound metabolized	Compound NOT metabolized	Compound metabolized		Compound metabolized	Compound NOT metabolized	

— ChEMBL document CHEMBL5303573, “Mapping human microbiome drug metabolism by gut bacteria and their genes” (Nature, 2019)
